# In patent publication US8557796B2, “Substituted 1-oxa-2,8-diaza-spiro [4,5] dec-2-ene derivatives and related treatment methods” (Gruenenthal GmbH, priority 2001, dated 2013):
# Molecular target: T1, NA transporter (Rattus norvegicus, UniProt Q9WTR4)
# T1 construct: synaptosomes from rat brain regions were freshly isolated; from tissue; host or cells: P2 synaptosome fraction from hypothalamus of male rat brain
# Test: Noradrenalin uptake inhibition (NA-uptake) in synaptosomes
# Format: biochemical
# Conditions: rat hypothalamus synaptosomes
# Description: Tests on Noradrenalin Uptake Inhibition (NA-Uptake Inhibition)
# In order to be able to carry out these in vitro studies, synaptosomes from rat brain regions were freshly isolated.
# T1 sequence (Q9WTR4 1-597): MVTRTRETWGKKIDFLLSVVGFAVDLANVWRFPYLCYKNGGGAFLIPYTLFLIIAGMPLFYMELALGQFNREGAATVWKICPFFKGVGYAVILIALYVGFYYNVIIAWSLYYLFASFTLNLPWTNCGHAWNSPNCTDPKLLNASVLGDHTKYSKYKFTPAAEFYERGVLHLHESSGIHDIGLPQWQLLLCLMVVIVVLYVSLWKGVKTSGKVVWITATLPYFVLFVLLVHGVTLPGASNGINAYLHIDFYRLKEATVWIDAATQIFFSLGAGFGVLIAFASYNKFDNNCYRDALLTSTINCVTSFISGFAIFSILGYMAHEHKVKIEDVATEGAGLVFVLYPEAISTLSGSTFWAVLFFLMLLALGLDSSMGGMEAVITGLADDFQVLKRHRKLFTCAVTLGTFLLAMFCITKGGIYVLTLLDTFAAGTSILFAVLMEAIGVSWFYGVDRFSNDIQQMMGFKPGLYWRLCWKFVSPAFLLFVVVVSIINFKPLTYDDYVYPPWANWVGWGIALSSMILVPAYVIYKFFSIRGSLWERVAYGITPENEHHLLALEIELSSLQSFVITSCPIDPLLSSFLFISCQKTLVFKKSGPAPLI
SMILES,inhibition at 10 µM,"NA-uptake, 10 μM, % inhibition"
"CC(C)CNC(=O)C1=NOC2(CCN(C(=O)c3cccc4ccccc34)CC2)C1 [Example 178, 8-(naphthalene-1-carbonyl)-1-oxa-2,8-diaza-spiro[4,5]dec-2-ene-3-carboxylic acid isobutyl-amide]",51%,–
"O=C(NCc1cccc(Cl)c1)C1=NOC2(CCN(S(=O)(=O)c3cccc(C(F)(F)F)c3)CC2)C1 [Example 132, 8-(3-trifluoromethyl-benzenesulphonyl)-1-oxa-2,8-diaza-spiro[4,5]dec-2-ene-3-carboxylic acid 3-chlorobenzylamide]",46%,–
O=C(NCc1cccs1)C1=NOC2(CCN(C(=O)c3cccc(Cl)c3)CC2)C1 [Example 208],–,52%
"O=C(NC1CCCC1OCc1ccccc1)C1=NOC2(CCN(S(=O)(=O)c3cccs3)CC2)C1 (centres unmarked) [Example 47, 8-(thiophene-2-sulphonyl)-1-oxa-2,8-diaza-spiro[4,5]dec-2-ene-3-carboxylic acid (2-benzyloxy-cyclopentyl)-amide]",92%,–
"CN(C)CCNC(=O)C1=NOC2(CCN(S(=O)(=O)c3ccccc3)CC2)C1 [Example 13, 8-benzenesulphonyl-1-oxa-2,8-diaza-spiro[4,5]dec-2-ene-3-carboxylic acid (2-dimethylamino-ethyl)-amide]",43%,–
"O=C(NCc1cccs1)C1=NOC2(CCN(C(=O)c3ccc(SC(F)(F)F)cc3)CC2)C1 [Example 135, 8-(4-trifluoromethylsulphanyl-benzoyl)-1-oxa-2,8-diaza-spiro[4,5]dec-2-ene-3-carboxylic acid (thiophen-2-ylmethyl)-amide]",56%,–
"Cc1oc(C(C)(C)C)cc1C(=O)N1CCC2(CC1)CC(C(=O)NC1CCCC1)=NO2 [Example 126, 8-(5-tert-butyl-2-methyl-furan-3-carbonyl)-1-oxa-2,8-diaza-spiro[4,5]dec-2-ene-3-carboxylic acid cyclopentylamide]",67%,–
"O=C(NCc1ccccc1)C1=NOC2(CCN(C(=O)c3cccc(SC(F)F)c3)CC2)C1 [Example 180, 8-(3-difluoromethylsulphanyl-benzoyl)-1-oxa-2,8-diaza-spiro[4,5]dec-2-ene-3-carboxylic acid benzylamide]",61%,–
"CC(C)CC(NC(=O)C1=NOC2(CCN(S(=O)(=O)c3cccs3)CC2)C1)C(=O)OC(C)(C)C (centres unmarked) [Example 145, 4-methyl-2-{[8-(thiophene-2-sulphonyl)-1-oxa-2,8-diaza-spiro[4,5]dec-2-ene-3-carbonyl]-amino]-pentanoic acid tert-butyl ester]",46%,–
"O=C(NCc1ccccc1F)C1=NOC2(CCN(S(=O)(=O)c3ccc(F)cc3)CC2)C1 [Example 207, 8-(4-fluoro-benzenesulphonyl)-1-oxa-2,8-diaza-spiro[4,5]dec-2-ene-3-carboxylic acid 2 fluorobenzylamide]",50%,–
"CC(NC(=O)C1=NOC2(CCN(S(=O)(=O)c3ccc(Cl)s3)CC2)C1)c1cccc2c1OCCO2 (centres unmarked) [Example 140, 8-(5-chloro-thiophene-2-sulphonyl)-1-oxa-2,8-diaza-spiro[4,5]dec-2-ene-3-carboxylic acid [1-(2,3-dihydro-benzo[1,4]dioxin-5-yl)-ethyl]-amide]",83%,–
"O=C(C1=NOC2(CCN(S(=O)(=O)c3ccc(OC(F)(F)F)cc3)CC2)C1)N1CCN(CCCc2ccccc2)CC1 [Example 176, [4-(3-phenyl-propyl)-piperazin-l-yl]-[8-(4-trifluoromethoxy-benzenesulphonyl)-1-oxa-2,8-diaza-spiro [4,5]dec-2-en-3-yl]-methanone]",–,52%
"CCSCCNC(=O)C1=NOC2(CCN(S(=O)(=O)CC34CCC(CC3=O)C4(C)C)CC2)C1 (centres unmarked) [Example 111, 8-(7,7-dimethyl-2-oxo-bicyclo[2.2.1]hept-1-ylmethane-sulphonyl)-1-oxa-2,8-diaza-spiro[4,5]dec-2-ene-3-carboxylic acid (2-ethylsulphanyl-ethyl)-amide]",40%,–
"N#CCCN(CCc1ccccn1)C(=O)C1=NOC2(CCN(S(=O)(=O)c3ccc(F)cc3)CC2)C1 [Example 167, 8-(4-fluoro-benzenesulphonyl)-1-oxa-2,8-diaza-spiro[4,5]dec-2-ene-3-carboxylic acid (2-cyano-ethyl)-(2-pyridin-2-yl-ethyl)-amide]",63%,–
"O=C(NCC1CC1)C1=NOC2(CCN(C(=O)c3ccc(C(F)(F)F)c(F)c3)CC2)C1 [Example 110, 8-(3-fluoro-4-trifluoromethyl-benzoyl)-1-oxa-2,8-diaza-spiro[4,5]dec-2-ene-3-carboxylic acid cyclopropylmethyl-amide]",45%,–
"O=C(NCc1ccccc1)C1=NOC2(CCN(C(=O)c3ccc(Br)cc3)CC2)C1 [Example 212, 8-(4-bromo-benzoyl)-1-oxa-2,8-diaza-spiro[4,5]dec-2-ene-3-carboxylic acid benzylamide]",55%,–
"O=C(C1=NOC2(CCN(S(=O)(=O)Cc3ccccc3)CC2)C1)N1CCN(c2ccccn2)CC1 [Example 134, (8-phenylmethanesulphonyl-1-oxa-2,8-diaza-spiro[4,5]dec-2-en-3-yl)-(4-pyridin-2-yl-piperazin-1-yl)-methanone]",51%,–
"CCN(CCNC(=O)C1=NOC2(CCN(S(=O)(=O)N(C)C)CC2)C1)c1cccc(C)c1 [Example 216, 8-dimethylsulphamoyl-1-oxa-2,8-diaza-spiro[4,5]dec-2-ene-3-carboxylic acid [2-(ethyl-m-tolyl-amino)-ethyl]amide]",40%,–

SMILES,inhibition at 10 µM,"NA-uptake, 10 μM, % inhibition"
O=C(NCC1CCCO1)C1=NOC2(CCN(C(=O)c3ccc(F)cc3F)CC2)C1 (centres unmarked) [Example 112],–,45%
"COC(=O)CCC(=O)N1CCC2(CC1)CC(C(=O)NCc1cccs1)=NO2 [Example 114, 4-oxo-4-{3-[(thiophen-2-ylmethyl)-carbamoyl]-1-oxa-2,8-diaza-spiro[4,5]dec-2-ene-8-yl}-butyric acid methyl ester]",42%,–
"O=C(NCC1CC1)C1=NOC2(CCN(C(=O)c3ccc4ccccc4c3)CC2)C1 [Example 204, 8-(naphthalene-2-carbonyl)-1-oxa-2,8-diaza-spiro[4,5]dec-2-ene-3-carboxylic acid cyclopropylmethyl-amide]",48%,–
"COc1cccc(CCNC(=O)C2=NOC3(CCN(S(=O)(=O)c4ccc(F)cc4)CC3)C2)c1 [Example 124, 8-(4-fluoro-benzenesulphonyl)-1-oxa-2,8-diaza-spiro[4,5]dec-2-ene-3-carboxylic acid [2-(3-methoxy-phenyl)-ethyl]-amide]",49%,–
"Cc1onc(-c2c(Cl)cccc2Cl)c1C(=O)N1CCC2(CC1)CC(C(=O)NCc1cccs1)=NO2 [Example 197, 8-[3-(2,6-dichloro-phenyl)-5-methyl-isoxazole-4-carbonyl]-1-oxa-2,8-diaza-spiro[4,5]dec-2-ene-3-carboxylic acid (thiophen-2-ylmethyl)-amide]",41%,–
"CN(C)S(=O)(=O)N1CCC2(CC1)CC(C(=O)N1CCN(Cc3ccc(C(C)(C)C)cc3)CC1)=NO2 [Example 189, 3-[4-(4-tert-butyl-benzyl)-piperazine-1-carbonyl]-1-oxa-2,8-diaza-spiro[4,5]dec-2-ene-8-sulphonic acid dimethylamide]",45%,–
"CC(NC(=O)C1=NOC2(CCN(S(=O)(=O)c3ccc(F)cc3)CC2)C1)C(=O)Nc1ccc2ccccc2c1 (centres unmarked) [Example 198, 8-(4-fluoro-benzenesulphonyl)-1-oxa-2,8-diaza-spiro[4,5]dec-2-ene-3-carboxylic acid [1-(naphthalen-2-ylcarbamoyl)ethyl]-amide]",52%,–
"CN(C)S(=O)(=O)N1CCC2(CC1)CC(C(=O)NC(Cc1ccccc1)C(=O)OC(C)(C)C)=NO2 (centres unmarked) [Example 139, 2-[(8-dimethylsulphamoyl-1-oxa-2,8-diaza-spiro[4,5]dec-2-ene-3-carbonyl)-amino]-3-phenyl-propionic acid tert-butyl ester]",51%,–
"O=C(NCCc1cccc(F)c1)C1=NOC2(CCN(S(=O)(=O)Cc3ccccc3)CC2)C1 [Example 78, 8-phenylmethanesulphonyl-1-oxa-2,8-diaza-spiro[4,5]dec-2-ene-3-carboxylic acid [2-(3-fluorophenyl)-ethyl]-amide]",42%,–
O=C(NC1CCCC1OCc1ccccc1)C1=NOC2(CCN(S(=O)(=O)c3ccc(Cl)s3)CC2)C1 (centres unmarked) [Example 191],–,74%
"CSc1ncccc1C(=O)N1CCC2(CC1)CC(C(=O)NCC(C)C)=NO2 [Example 125, 8-(2-methylsulphanyl-pyridine-3-carbonyl)-1-oxa-2,8-diaza-spiro[4,5]dec-2-ene-3-carboxylic acid isobutyl-amide]",40%,–
"Cc1oc(C(C)(C)C)cc1C(=O)N1CCC2(CC1)CC(C(=O)NCC(C)C)=NO2 [Example 105, 8-(5-tert-butyl-2-methyl-furan-3-carbonyl)-1-oxa-2,8-diaza-spiro[4,5]dec-2-ene-3-carboxylic acid isobutyl-amide]",53%,–
"O=C(C1=NOC2(CCN(S(=O)(=O)c3ccc(OC(F)(F)F)cc3)CC2)C1)N(CCc1ccccc1)Cc1ccccc1 [Example 97, 8-(4-trifluoromethoxy-benzenesulphonyl)-1-oxa-2,8-diaza-spiro[4,5]dec-2-ene-3-carboxylic acid benzyl-phenethyl-amide]",83%,–
O=C(NCc1cccs1)C1=NOC2(CCN(C(=O)C=Cc3ccccc3)CC2)C1 [Example 106],–,47%
"O=C(NCC1CC1)C1=NOC2(CCN(C(=O)c3ccc(C(F)(F)F)cc3)CC2)C1 [Example 107, 8-(4-trifluoromethyl-benzoyl)-1-oxa-2,8-diaza-spiro[4,5]dec-2-ene-3-carboxylic acid cyclopropylmethyl-amide]",42%,–
O=C(NCc1cccs1)C1=NOC2(CCN(C(=O)CCCOc3ccccc3)CC2)C1 [Example 183],–,67%
"CC(NC(=O)C1=NOC2(CCN(S(=O)(=O)c3cccs3)CC2)C1)c1ccccc1 (centres unmarked) [Example 8, 8-(thiophene-2-sulphonyl)-1-oxa-2,8-diaza-spiro[4,5]dec-2-ene-3-carboxylic acid (1-phenyl-ethyl)-amide]",48%,–
